Assays:
CT26 tumor-bearing mice = assay: CT26 tumor model, UNO + anti-mPD-1 + CpG-B; format: in vivo, mouse
Description: Preparation of cancer cells for injection—Mouse colon carcinoma CT26.WT cells (ATCC, Cat no. CRL-2638) suspended in Hanks' Balanced Salt Solution (HBSS) (Biological Industries, Israel), at a concentration of 5.0×10^6 cells/ml, were freshly prepared on the day of cancer model induction. Cells were grown to 70% confluency and were harvested using trypsin (Biological Industries, Israel), and counted using a cell counter device. The cells were then centrifuged at 1,200 rpm (241×g) for 8 minutes, and the pellet was re-suspended in ice cold HBSS at 5.0×10^6 in 1 ml (5.0×10^5 cells in 100 μl solution). Cell viability was >90% as determined by trypan blue staining prior to inoculation to mice. At the point of inoculation, cells were at passage 8 at most.
Inoculation of CT26 cancer cells to mice—100 μl/mouse of the_CT26 cancer cells suspension (concentration of 5.0×10^6 cells/ml) were inoculated subcutaneously (s.c.) to the right flank of male BALB/c mice, which were 10 weeks of age (Envigo, the Netherlands). Five days later, CT26 cells at the same dose were inoculated s.c. to the left flank of each mouse. Ten days post primary tumor inoculation tumor-bearing mice were divided into the following groups (day 0) as depicted in Table 2 below and treated according to the timeline shown in FIG. 20:
Mice were followed up for totally 52 days. Tumor take was monitored by palpation of the flank and tumor growth was monitored by measurement of the tumor dimensions using a digital caliper. Mice were sacrificed and excluded from the study if their total tumor volume was >1500 mm^3 or their distress scoring >12 as was accepted according to the IACUC IL-2112-105-5.
UNO treatment—On the day of treatment, mice were anesthetized by an intraperitoneal (i.p.) injection of 100 mg/kg ketamine and 10 mg/kg of xylazine hydrochloride solution. Tumor-bearing mice were treated with 50,000 ppm of UNO delivered into the tumor by a 23 G needle over 5 minutes, at 0.2 LPM. After treatment, all mice were warmed and closely monitored until complete recovery was observed. […]

CT26 cells = assay: In vitro UNO exposure of CT26 cells, Annexin V/PI cell death analysis; format: cell-based, mouse; settings: 25,000-100,000 ppm for 10 s, 30 s or 1 min; 24 hours following exposure; dosage and time dependent
Description: (§1) Preparation of cells—Mouse colon carcinoma CT26.WT cells (ATCC number: CRL-2638) were grown to a 70-80% confluency and harvested using trypsin. Following, the cells were centrifuged at 1,200 revolutions per minute (rpm)—241 G for 8 minutes, then the pellet was re-suspended in 1 ml of cell media (RPMI—1640 supplemented with 10% FBS and 1% Pen-Strep). The cells were counted using an automated cell counter and a total of 2×10^6 cells were seeded into each […] containing 9 ml cell media. The plates were then placed for 24 hours in an incubator at 37° C., 5% CO2.
(§2) UNO treatment—Following 24 hours of incubation, cell media was removed, and the plate was placed in an acrylic box stationed within an operating chemical fume hood. Prior to the initiation of treatment, the box was exposed to UV for 1 hour to reduce the chances of contamination. The box was closed and sealed with parafilm. A PVC delivery line was placed within a designated hole on the top of the box and lowered until approximately 5 cm within the box. The flowmeter was set to 1 LPM to expose the cells for the durations and concentrations described in Table 3 (control cells were untreated).
(§3) Following treatment, 9 ml of cell media were added to each well and the plate was placed for 24 hours in an incubator at 37° C., 5% CO2.
(§4) Flow cytometry—Cell media was removed to a 50 ml centrifuge tube. […]

[1] = test system: PD-L1 expression on CT26 PI negative cells; assay: In vitro UNO exposure of CT26 cells, PD-L1 expression by flow cytometry; format: cell-based, mouse
Description: as §1, §2, §3, §4

[N]=O [UNO, nitric oxide]
Percentage of mice with primary tumor complete regression (CT26 tumor-bearing mice; 42 days after treatments (FIG. 16)): 10% | Distant tumor rejection, percentage of mice (CT26 tumor-bearing mice; 42 days following treatments (FIG. 17)): 11% | Percentage of group surviving (CT26 tumor-bearing mice; 52 days following primary tumor inoculation): 10% | Effect on viability of CT26 cancer cells (CT26 cells): reduces viability and induces apoptosis and necrosis | PI negative cells expressing PD-L1 ([1]; 25,000-100,000 ppm for 10 s, 30 s or 1 min, depending on dosage and time of exposure): 70-90% | Mean fluorescent intensity (MFI) of PD-L1 expression ([1]; UNO dosage and time dependent manner): increased
